{"source": "patent US7879791B2", "about": "(Medical College of Georgia Research Institute, Inc., priority 1997, dated 2011)", "key": {"[1]": {"test_system": "tryptophan transport system in MCSF-derived macrophages", "test": "[3H]tryptophan uptake in MCSF-derived macrophages with competing unlabeled amino acids", "assay_type": "cell-based, human", "settings": "for effectiveness as competitor for tryptophan uptake compared with phenylalanine: titration studies", "procedure": "The graph compares fresh monocytes, MCSF-derived macrophages (day 7), and MCSF-derived macrophages activated for the preceding 24 hrs with IFNγ. All assays were performed in the presence of 140 mM NaCl. […] A logarithmic scale is used to permit comparison.\nMacrophages were cultured for 7 days in MCSF and activated during the last 24 hrs with IFNγ.\nThis sodium-independent system was then characterized using cross-competition studies."}, "T cells": {"test_system": "T cells", "test": "T cell proliferation (thymidine incorporation) in co-culture conditioned medium with tryptophan titrated back", "assay_type": "cell-based, human", "procedure": "FIG. 1 is a graph of thymidine incorporation (cpm) by T cells in the presence of supplemental amino acids. […] Human monocytes were allowed to differentiate into macrophages then co-cultured with mitogen-activated T cells (anti-CD3). Fresh PBMC were then suspended in this medium and activated with additional anti-CD3. […] Control cultures received fresh medium. Proliferation was measured by 4 hr thymidine incorporation after 72 hrs. Error bars show SD.\nFresh lymphocytes were suspended in conditioned medium and activated with additional mitogen. Care was taken to exclude all traces of fresh medium."}, "MCSF-derived macrophages [2]": {"test_system": "MCSF-derived macrophages", "test": "Elimination kinetics of tryptophan in co-cultures of MCSF-derived macrophages and mitogen-activated T cells", "assay_type": "cell-based, human", "settings": "when tryptophan was not limiting", "procedure": "MCSF-derived macrophages were cultured for 24 hrs with autologous T cells, with or without anti-CD3 mitogen. The medium was replaced with fresh medium, and supernatant from replicate cultures harvested at the times shown. […] Error bars (less than 10%) are omitted for clarity.\nDepletion of tryptophan is rapid. Macrophages were co-cultured with T cells and mitogen for 24 hrs to allow up-regulation of the tryptophan-depletion pathway, then fresh medium was added and the kinetics of elimination measured. […] This rapid rate of tryptophan depletion could not be attributed to consumption by cellular metabolism."}, "IDO [3]": {"biological_target": "T1, IDO (Homo sapiens, UniProt P14902)", "test": "Macrophage-mediated suppression of T cell proliferation in co-cultures of MCSF-derived macrophages and T cells with anti-CD3", "assay_type": "cell-based", "parameters": "endogenous in cells; host or cells: MCSF-derived human monocyte-derived macrophages co-cultured with T cells", "settings": "10x normal tryptophan", "procedure": "Proliferation was measured after 72 hrs by thymidine incorporation. The level of background proliferation contributed by macrophages is indicated by the dotted line. In FIG. 4B, macrophages were seeded at both low density (5×10^4/well) and high density (2×10^5/well)."}, "[4]": {"settings": "patients / individuals, literature reports; cited from earlier work"}, "MB49 tumor cells": {"test_system": "MB49 tumor cells", "test": "MB49 epithelial carcinoma in syngeneic hosts", "assay_type": "in vivo, mouse", "procedure": "In light of the data herein showing that the allogeneic fetus is able to protect itself against attack by the maternal immune system through expression of IDO, and given the expression of IDO in tumors as cited above, it was tested whether a similar mechanism allowed tumor cells to evade immune attack. The MB49 epithelial carcinoma model was chosen for proof of concept because it is an aggressive, lethal malignancy when innoculated into syngeneic hosts, but it can be rendered susceptible to immune attack if the host's immune system is suitably activated (Chen, et al. 1997 J. Immunol. 159, 351-359). […] MB49 tumor cells (1×10^6) were injected subcutaneously into syngeneic C57/B16 hosts. […] By day 10, all animals had evidence of initial tumor formation (palpable mass). By day 15, control animals were visibly ill and the experiment was terminated. Animals were sacrificed on day 11-15 for histologic examination."}, "MCSF-derived macrophages [5]": {"test_system": "MCSF-derived macrophages", "test": "Induction of IDO activity (tryptophan degradation) in MCSF-derived macrophages by IFNγ with or without CD40L", "assay_type": "cell-based, human", "excerpt": "MCSF-derived macrophages were activated for 24 hrs with various concentrations of recombinant IFNγ, in the presence or absence of recombinant CD40-L trimer. […] SD was less than 10%.\nThe response of MCSF-derived macrophages to IFNγ in the presence or absence of recombinant CD40L (prepared as a homo-trimer in order to signal via CD40 in soluble form, gift of Bill Fanslow, Immunex Corporation) was compared."}, "IDO [6]": {"biological_target": "T1, IDO", "parameters": "host or cells: tumor xenografts in IFNγ-treated animals", "settings": "IFNγ-treated animals; cited from earlier work"}, "[7]": {"settings": "group n = 7, pellets 0.9 mg/hr, 7-day release"}}, "data": [{"molecule": "CC(C)C[C@H](N)C(=O)O", "note": "[leucine]", "values": [{"measurement": "effectiveness as competitor for tryptophan uptake compared with phenylalanine", "setting": "[1]", "value": "even less effective competitors"}]}, {"molecule": "N[C@@H](Cc1c[nH]c2ccccc12)C(=O)O", "note": "[tryptophan]", "values": [{"measurement": "EC50", "setting": "T cells; Homo sapiens, T-cell, 72 h, read-out: half-maximal concentration for T cell proliferation", "value": "~500", "unit": "nM"}, {"measurement": "concentration sufficient to initiate low but readily detectable T cell proliferation", "setting": "T cells; tryptophan in conditioned medium", "value": 50, "unit": "nM"}, {"measurement": "initial rate of tryptophan elimination", "setting": "MCSF-derived macrophages [2]", "value": "up to 20,000 pmol/10^6 cells/hr"}, {"measurement": "reversal of suppression by supplemental tryptophan", "setting": "IDO [3]; high seeding density (2x10^5/well)", "value": "remained able to suppress"}, {"measurement": "reversal of suppression by supplemental tryptophan", "setting": "IDO [3]; low seeding density (5x10^4/well)", "value": "effectively reversed suppression"}, {"measurement": "autoimmune or adverse illness reported", "setting": "[4]", "value": "multiple autoimmune disorders"}]}, {"molecule": "N[C@@H](Cc1c[nH]c2ccc(O)cc12)C(=O)O", "note": "[L-5-hydroxytryptophan]", "values": [{"measurement": "autoimmune or adverse illness reported", "setting": "[4]", "value": "high frequency of a scleroderma-like illness"}]}, {"molecule": "CC(n1cc(C[C@H](N)C(=O)O)c2ccccc21)n1cc(C[C@H](N)C(=O)O)c2ccccc21", "note": "[1-1′ ethylidenebis-[tryptophan]]", "values": [{"measurement": "autoimmune or adverse illness reported", "setting": "[4]", "value": "eosinophilia-myalgia syndrome"}]}, {"molecule": "NC1(C(=O)O)CC2CCC1C2", "note": "(centres unmarked) [BCH, 2-amino-2-norborane-carboxylic acid]", "values": [{"measurement": "total tryptophan transport still available", "setting": "[1]; system L inhibited by 8 mM BCH", "value": "30-50%"}, {"measurement": "effectiveness as competitor for tryptophan uptake compared with phenylalanine", "setting": "[1]", "value": "even less effective competitors"}]}, {"molecule": "Cn1cc(C[C@H](N)C(=O)O)c2ccccc21", "note": "[1-methyl-tryptophan]", "values": [{"measurement": "continuation of responses after the period of inhibitor administration", "setting": "MB49 tumor cells; administration days 1-7", "value": "4 to 7", "unit": "days"}, {"measurement": "histology (day 15)", "setting": "MB49 tumor cells; day 15", "value": "apoptosis, necrosis,"}, {"measurement": "complete responses", "setting": "MB49 tumor cells; [7]", "value": 1}, {"measurement": "partial responses", "setting": "MB49 tumor cells; [7]", "value": 6}, {"measurement": "tumor growth compared to vehicle control", "setting": "MB49 tumor cells; immunocompetent, syngeneic hosts", "value": "significantly reduced tumor growth"}, {"measurement": "performance status", "setting": "MB49 tumor cells; mouse, in vivo", "value": "normal"}, {"measurement": "visible metastases", "setting": "MB49 tumor cells; mouse, in vivo", "value": "none"}, {"measurement": "size of residual tumor", "setting": "MB49 tumor cells; residual tumor necrotic", "value": "1 cm (necrotic)"}]}, {"molecule": "IFNγ: recombinant interferon gamma, inducer of IDO", "values": [{"measurement": "IFNγ concentration at which significant response occurred", "setting": "MCSF-derived macrophages [5]; in the presence of CD40L", "value": "≥ 1", "unit": "U/ml"}, {"measurement": "concentration required for maximal induction of tryptophan degradation", "setting": "MCSF-derived macrophages [5]; recombinant IFNγ alone, 24 hrs", "value": "≥ 100", "unit": "U/ml"}]}, {"molecule": "N[C@@H](Cc1ccc(O)cc1)C(=O)O", "note": "[Tyrosine]", "values": [{"measurement": "effectiveness as competitor for tryptophan uptake compared with phenylalanine", "setting": "[1]", "value": "even less effective competitors"}]}, {"molecule": "N[C@@H](Cc1ccccc1)C(=O)O", "note": "[phenylalanine]", "values": [{"measurement": "inhibition of tryptophan uptake by competing unlabeled amino acid", "setting": "[1]; 8 mM each, sodium-independent, FIG. 8B", "value": "could not fully block"}]}, {"molecule": "IFNγ: recombinant interferon gamma, inducer of IDO (protein, UniProt P01579 24-161, looked up) Interferon gamma: QDPYVKEAENLKKYFNAGHSDVADNGTLFLGILKNWKEESDRKIMQSQIVSFYFKLFKNFKDDQSIQKSVETIKEDMNVKFFNSNKKKRDDFEKLTNYSVTDLNVQRKAIHELIQVMAELSPAAKTGKRKRSQMLFRG", "values": [{"measurement": "reduction in tumor tryptophan compared to controls", "setting": "IDO [6]", "value": "approximately 80%"}]}, {"molecule": "CD40L: recombinant CD40L prepared as a homo-trimer to signal via CD40 in soluble form (protein, UniProt P29965 47-261, looked up, extracellular domain soluble homo-trimer, recombinant CD40L prepared as a homo-trimer to signal via CD40 in soluble form) extracellular domain: HRRLDKIEDERNLHEDFVFMKTIQRCNTGERSLSLLNCEEIKSQFEGFVKDIMLNKEETKKENSFEMQKGDQNPQIAAHVISEASSKTTSVLQWAEKGYYTMSNNLVTLENGKQLTVKRQGLYYIYAQVTFCSNREASSQAPFIASLCLKSPGRFERILLRAANTHSSAKPCGQQSIHLGGVFELQPGASVFVNVTDPSQVSHGTGFTSFGLLKL", "values": [{"measurement": "effect on enzyme activity", "setting": "MCSF-derived macrophages [5]; CD40L alone", "value": "little effect"}, {"measurement": "shift of the dose-response curve of IFNγ", "setting": "MCSF-derived macrophages [5]; CD40L combined with IFNγ", "value": "one to two orders of magnitude"}]}]}
